In patent US7973006B2, “Antibacterial agent based on fatty acid esters of hydroxy carboxylic acid acids” (Purac Biochem B.V., priority 2007, dated 2011):
Where “and” joins values, the source holds several entries; their conditions need not be identical. Equal entries are not always repeated.

Experiments:
[1] = tested on: Salmonella Typhimurium ATCC 13311; test: Decontamination of inoculated chicken filets, surviving cell count; assay type: cell-based; settings: for Salmonella Typhimurium on chicken filets: individual, 12° C.
Experimental: Salmonella Typhimurium ATCC 13311 and Escherichia coli O157:H7 ATCC 700728 were grown in sterile screw capped tubes containing Brain heart infusion broth for 18-24 hours at 30° C.
Chicken filets (150-200 g) were trimmed, vacuum packaged and stored at 4-7° C. Filets were subsequently sterilized by gamma-irradiation (average radiation dose: 12 kiloGray).
1 ml of an overnight culture of Salmonella Typhimurium in brain heart infusion both was diluted 1000 times with sterile 0.8% (w/v) NaCl and 0.1% (w/v) peptone. 0.5 ml of this diluted culture was transferred to one side of the filet. The inoculum was distributed by gently rubbing the entire surface of the filet. This was repeated for the other side of the filet. Inoculation was carried out at 6° C. Inoculated filets were rested for 60-120 min at 6° C. to allow attachment of the cells.
Chicken filets were briefly dipped and completely submersed in 1 l of a solution containing the appropriate formulation and then transferred to 400 ml Bagfilter® lateral filter bags (Interscience, St Nom, France) containing 5 ml of the appropriate formulation. Bags were vacuum-sealed and incubated at 12° C. for up to 7 days until further analysis. Time zero samples were plated within 30 min after dipping.
Surviving Salmonella Typhimurium on chicken filets were counted as follows: a sealed bag was opened and to this was added 2 times the net weight sterile dilution fluid ([…] NaCl and 0.1% (w/v) bacteriological peptone). Duplicate filets were homogenized for 1 min. in a Bagmixer® 400 paddle labblender (Interscience, St Nom, France). 50 μl of the homogenates or dilutions thereof were plated on duplicate Salmonella chromogenic agar plates (CM1007) with cefsulodin, novobiocin supplement (SR0194) (Oxoid, Basingstoke, United Kingdom) using an Eddyjet type 1.23 spiral plater (IUL Instruments, Barcelona, Spain). Plates were incubated for 24-48 hours at 30° C. and then counted. Salmonella numbers were expressed as log10 colony forming units per ml homogenate.
The compositions of the formulations that were studied are shown in Table 2. ε-Polylysine and lactylates were dissolved in demineralised water and sterilized for 20 min at 120° C.

[2] = tested on: Escherichia coli (ATCC 8739); test: Bioscreen growth rate in brain heart infusion broth with lactylate and polylysine; assay type: cell-based
[3] = tested on: Escherichia coli serotype O157:H7 (ATCC 700728); test: as above; assay type: cell-based
Experimental: (§1) The following cultures were used in a study: Escherichia coli serotype O157:H7 (ATCC 700728), Salmonella typhimurium (ATCC 13311) and Salmonella entiritidis (ATCC 13076). All cultures were transferred daily in screw-capped tubes containing 10 ml brain heart infusion broth. Cultures were incubated at 30° C. without agitation. Brain heart infusion broth was prepared with increasing amounts of lactylate and polylysine. The concentration range for the caprylic (C8) lactylate was as from 0 to 0.45% in 10 0.05% steps, for the capric (C10) lactylate was as from 0 to 0.09% in 10 0.01% steps, for the lauric (C12) lactylate was as from 0 to 0.009% in 10 0.001% steps and for the tetradecanoic (C14) lactylate was as from 0 to 0.009% in 10 0.001% steps. Lactylates were combined with polylysine. The concentration range for the polylysine was as from 0 to 0.0675% in 10 0.0075% steps. […] The pH of the media was adjusted to 6.1-6.2 with 1 N HCl or 1 N NaOH. Media were prepared in 10 ml quantities and sterilized by filtration. 300 μl of each medium was transferred to a panel of a sterile Bioscreen® honeycomb 100 well plate. Well plates were inoculated with 5 μl of a culture that was grown overnight in brain heart infusion broth using a sterile 5 μl repeating dispenser. Growth rates were determined with a Bioscreen® C that kinetically measures the development of turbidity by vertical photometry. The plates were incubated for 16-24 hours at 37° C., the optical density of the cultures was measured every 30 minutes at 420-580 nm using a wide band filter. The Bioscreen® measures at set time intervals the optical density of the cultures. […] The purpose of further data processing is to ascertain whether two […] act independently of each other or whether they stimulate each other in their inhibitory action (synergy) or cancel out each other inhibitory effect (antagonism). When a certain compound has no effect on an organism the specific growth rate of this organism (μ) can be expressed as a function (f) of the growth limiting substrate concentration (s) by for example the Monod equation, which reads: μ=μmax·s/(Ks+s), where μmax represents the maximum specific growth rate, s the standing concentration of the growth limiting substrate in the medium and Ks the substrate concentration where μ=0.5μmax. However, when the presence of an inhibitor P affects cell growth the function f for μ must be modified i.e. μ=f(s,p), where p represents the concentration of inhibitor P. Numerous studies of growth inhibition kinetics of bacteria have shown that many inhibitors behave as non-competitive inhibitors. This implies that only the maximum specific growth rate (μmax) value and not the affinity (Ks) is affected. Therefore the specific growth rate in the presence of inhibitor can be written as: μ=μi·s/(Ks+s), where μi is the maximal specific growth rate in the presence of a inhibitor P. The relationship between μi and μmax and the concentration of the inhibitor P was describes using the Logistic Dose Response equation, which reads: μi/μmax=1/(1+(p/p0.5)^b) (Jungbauer, A. (2001). The logistic dose response function: a robust fitting function for transition phenomena in life sciences. J. Clinical Ligand Assay 24: 270-274). In this equation p represents the concentration of inhibitor P and p0.5 the concentration of P where μi=0.5μmax; μmax is the maximum specific growth rate that is the specific growth rate in the absence of inhibitor P, b is a dimensionless quantity, which determines the relationship between μi and p. Combining the Monod and Logistic Dose Response equation it can be written as: μ=μmax(s/Ks+s)/(1+(p/p0.5)^b). In batch culture where s is usually many times higher than Ks this equation reduces to μ=μmax/(1+(p/p0.5)^b). When comparing different organisms grown under the same conditions, or the same organism grown under different conditions, it is more meaningful to use relative growth rate, rather than absolute growth rates as standards of comparison. […]

[4] = tested on: Salmonella entiritidis (ATCC 13076); test: as above; assay type: cell-based
Experimental: as §1

[5] = tested on: Salmonella typhimurium (ATCC 13311); test: as above; assay type: cell-based
Experimental: as §1

[6] = tested on: Enterococcus faecalis; settings: EP 1000542; cited from earlier work
[7] = tested on: Candida albicans; settings: EP 1000542; cited from earlier work
[8] = 0.45% (w/w) in broth, pH 6.1-6.2, 37° C.
[9] = 0.0225% (w/w) in broth, pH 6.1-6.2, 37° C.

## CCCCCCCC(=O)OC(C)C(=O)[O-].[Na+] (centres unmarked) [C8-lactylate, sodium salt of octanoyllactylate]
[1]; 0.2% (w/v), day 0
  Salmonella Typhimurium on chicken filets: 3.85 log10 colony forming units (CFU)/ml
[1]; 0.2% (w/v), day 1
  Salmonella Typhimurium on chicken filets: 4.1 log10 colony forming units (CFU)/ml
[1]; 0.2% (w/v), day 2
  Salmonella Typhimurium on chicken filets: 4.29 log10 colony forming units (CFU)/ml
[1]; 0.2% (w/v), day 5
  Salmonella Typhimurium on chicken filets: 6.27 log10 colony forming units (CFU)/ml
[1]; 0.2% (w/v), day 6
  Salmonella Typhimurium on chicken filets: 7.35 log10 colony forming units (CFU)/ml
[1]; 0.2% (w/v), day 7
  Salmonella Typhimurium on chicken filets: 7.42 log10 colony forming units (CFU)/ml
[2]; [8]
  Observed Relative Growth Rate: 0.5625
[3]; [8]
  Observed Relative Growth Rate: 0.657
[4]; [8]
  Observed Relative Growth Rate: 0.58
[5]; [8]
  Observed Relative Growth Rate: 0.4763

## CCCCCCCCCC(=O)OC(C)C(=O)O (centres unmarked) [C10-lactylate, decanoyllactylate]
[1]; 0.05% (w/v), day 0
  Salmonella Typhimurium on chicken filets: 3.75 log10 colony forming units (CFU)/ml
[1]; 0.05% (w/v), day 1
  Salmonella Typhimurium on chicken filets: 3.95 log10 colony forming units (CFU)/ml
[1]; 0.05% (w/v), day 2
  Salmonella Typhimurium on chicken filets: 4.45 log10 colony forming units (CFU)/ml
[1]; 0.05% (w/v), day 5
  Salmonella Typhimurium on chicken filets: 6.87 log10 colony forming units (CFU)/ml
[1]; 0.05% (w/v), day 6
  Salmonella Typhimurium on chicken filets: 6.83 log10 colony forming units (CFU)/ml
[1]; 0.05% (w/v), day 7
  Salmonella Typhimurium on chicken filets: 7.52 log10 colony forming units (CFU)/ml
[2]; 0.09% (w/w) in broth
  Observed Relative Growth Rate: 0.721
[3]; 0.09% (w/w) in broth
  Observed Relative Growth Rate: 0.766
[4]; 0.09% (w/w) in broth
  Observed Relative Growth Rate: 0.912
[5]; 0.09% (w/w) in broth
  Observed Relative Growth Rate: 0.904

## CCCCCCCCCC(=O)OC(C)C(=O)OC(C)C(=O)[O-].[Na+] (centres unmarked) [sodium salt of capryl-lactyl-lactylate]
[6]
  antimicrobial activity: some antimicrobial activity
[7]
  antimicrobial activity: some antimicrobial activity

## poly(imino(2-amino-1-oxo-1,6-hexanediyl)) [ε-polylysine]
[1]; 0.1% (w/v), day 0
  Salmonella Typhimurium on chicken filets: 3.04 log10 colony forming units (CFU)/ml
[1]; 0.1% (w/v), day 1
  Salmonella Typhimurium on chicken filets: 2.04 log10 colony forming units (CFU)/ml
[1]; 0.1% (w/v), day 2
  Salmonella Typhimurium on chicken filets: 2.15 log10 colony forming units (CFU)/ml
[1]; 0.1% (w/v), day 5
  Salmonella Typhimurium on chicken filets: 4.04 log10 colony forming units (CFU)/ml
[1]; 0.1% (w/v), day 6
  Salmonella Typhimurium on chicken filets: 4.26 log10 colony forming units (CFU)/ml
[1]; 0.1% (w/v), day 7
  Salmonella Typhimurium on chicken filets: 5.35 log10 colony forming units (CFU)/ml
[1]; single addition, after one day of incubation
  reduction in numbers: 2 log10
[2]; [9]
  Observed Relative Growth Rate: 0.4935 and 0.7370 and 0.4395 and 0.68
[4]; [9]
  Observed Relative Growth Rate: 0.9645 and 0.971 and 0.9035
[5]; [9]
  Observed Relative Growth Rate: 0.943 and 0.9725 and 0.9520
